Measurements from ChEMBL document CHEMBL5726255, “Biaryl acyl-sulfonamide compounds as sodium channel inhibitors” (2017).

target: Sodium channel protein type 9 subunit alpha (Homo sapiens, UniProt Q15858); test: Nav 1.7 In Vitro Patch Express (PX) Assay: HEK 293 cells stably transfected with human Nav1.7 were recorded in whole cell voltage clamp mode with the PatchXpress automated electrophysiology system (Molecular Devices, LLC, Sunnyvale, Calif.). Compound effects were measured on a partially inactivated state of the sodium channel. Cells were clamped to a holding potential yielding 20 to 50% inactivation. To elicit sodium current, channels were activated by pulsing to −10 mV for 20 msec. This voltage protocol was repeated at a rate of 0.1 Hz throughout the experiment. A single concentration of test compound was applied to cells for a duration of 3 minutes. Peak sodium current was measured at the end of the compound addition period to determine percent inhibition. Three to five cells were tested per concentration, and IC50 curves were fitted to percent inhibition as a function of concentration.
Sequence (Q15858 whole entry): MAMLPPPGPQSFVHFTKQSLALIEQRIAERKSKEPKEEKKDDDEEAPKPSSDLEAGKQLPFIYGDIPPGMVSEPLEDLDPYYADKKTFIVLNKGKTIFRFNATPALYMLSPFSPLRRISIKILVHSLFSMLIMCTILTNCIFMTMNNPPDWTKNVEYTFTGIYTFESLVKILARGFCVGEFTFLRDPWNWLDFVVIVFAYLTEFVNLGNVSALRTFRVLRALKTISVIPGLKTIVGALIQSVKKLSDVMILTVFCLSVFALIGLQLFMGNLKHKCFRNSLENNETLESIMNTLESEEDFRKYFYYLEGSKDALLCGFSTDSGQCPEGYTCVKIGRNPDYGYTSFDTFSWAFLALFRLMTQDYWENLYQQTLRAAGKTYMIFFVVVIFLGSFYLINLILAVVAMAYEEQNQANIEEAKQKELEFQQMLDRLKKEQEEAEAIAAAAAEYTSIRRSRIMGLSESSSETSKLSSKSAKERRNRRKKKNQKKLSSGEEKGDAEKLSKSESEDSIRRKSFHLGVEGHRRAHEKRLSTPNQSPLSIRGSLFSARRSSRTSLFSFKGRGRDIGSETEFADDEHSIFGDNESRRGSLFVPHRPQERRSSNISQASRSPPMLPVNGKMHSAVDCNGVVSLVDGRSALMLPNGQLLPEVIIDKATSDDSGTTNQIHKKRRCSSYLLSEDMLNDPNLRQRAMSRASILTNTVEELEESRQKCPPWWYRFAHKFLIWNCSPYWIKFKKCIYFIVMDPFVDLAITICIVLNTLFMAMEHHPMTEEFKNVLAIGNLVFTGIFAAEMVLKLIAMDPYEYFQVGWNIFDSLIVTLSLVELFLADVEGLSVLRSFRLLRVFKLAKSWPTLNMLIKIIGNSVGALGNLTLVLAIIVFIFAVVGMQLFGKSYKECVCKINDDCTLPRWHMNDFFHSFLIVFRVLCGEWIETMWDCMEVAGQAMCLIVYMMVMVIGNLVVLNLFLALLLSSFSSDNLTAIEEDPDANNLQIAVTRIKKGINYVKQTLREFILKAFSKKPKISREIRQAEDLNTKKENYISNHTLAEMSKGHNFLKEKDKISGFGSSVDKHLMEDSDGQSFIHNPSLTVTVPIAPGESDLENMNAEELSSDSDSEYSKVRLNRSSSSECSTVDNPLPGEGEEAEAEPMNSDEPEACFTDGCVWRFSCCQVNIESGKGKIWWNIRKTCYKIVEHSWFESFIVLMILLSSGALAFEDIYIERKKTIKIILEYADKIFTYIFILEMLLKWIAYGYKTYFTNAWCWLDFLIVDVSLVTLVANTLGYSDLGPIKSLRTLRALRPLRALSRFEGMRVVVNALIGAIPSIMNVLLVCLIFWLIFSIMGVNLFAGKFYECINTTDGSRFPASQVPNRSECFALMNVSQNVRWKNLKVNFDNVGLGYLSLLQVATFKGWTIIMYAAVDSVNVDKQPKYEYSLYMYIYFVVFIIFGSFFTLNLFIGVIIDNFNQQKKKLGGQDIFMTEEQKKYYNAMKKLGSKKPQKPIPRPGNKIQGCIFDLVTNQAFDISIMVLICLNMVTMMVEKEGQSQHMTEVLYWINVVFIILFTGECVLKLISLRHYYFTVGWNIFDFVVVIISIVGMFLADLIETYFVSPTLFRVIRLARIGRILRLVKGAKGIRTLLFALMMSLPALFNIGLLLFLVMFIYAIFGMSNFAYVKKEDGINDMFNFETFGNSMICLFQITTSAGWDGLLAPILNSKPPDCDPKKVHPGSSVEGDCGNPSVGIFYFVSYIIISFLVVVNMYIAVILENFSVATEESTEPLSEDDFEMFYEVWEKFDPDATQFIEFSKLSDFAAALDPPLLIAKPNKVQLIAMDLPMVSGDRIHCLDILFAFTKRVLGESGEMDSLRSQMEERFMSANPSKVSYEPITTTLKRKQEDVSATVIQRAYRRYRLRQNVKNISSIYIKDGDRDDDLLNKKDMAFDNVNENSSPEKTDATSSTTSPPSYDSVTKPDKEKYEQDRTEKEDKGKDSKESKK

Question: For `Cc1cc(C(=O)NS(=O)(=O)C2CCC2)c(F)cc1-c1cnc(OC2CCC2)c(Cl)c1`, which IC50 is on record?
Answer: The IC50 was 73.9 nM.

Question: For `CS(=O)(=O)NC(=O)c1cc(F)c(-c2cnc(Oc3ccc(F)c4c3CCC4)c(Cl)c2)cc1F`, which IC50 is on record?
Answer: Its IC50 is 96.5 nM.

Question: How did the IC50 turn out when `CC(C)COc1ncc(-c2cc(F)c(C(=O)NS(C)(=O)=O)cc2F)cc1Br` was run?
Answer: The IC50 was 559 nM.

Question: How did the IC50 turn out when `COc1cc(C(=O)NS(C)(=O)=O)ccc1-c1cnc(Oc2c(Cl)ccc(Cl)c2C)c(C#N)c1` was run?
Answer: The IC50 was 17.2 nM.

Question: How did the IC50 turn out when `Cc1cc(C(=O)NS(C)(=O)=O)c(F)cc1-c1cnc(O[C@H](C)c2cc(Cl)ccc2Cl)c(Cl)c1` was run?
Answer: Its IC50 is 46.2 nM.

target: Sodium channel protein type 5 subunit alpha (Homo sapiens, UniProt Q14524); test: Nav 1.5 In Vitro PX Assay: 293 cells stably transfected with human Nav 1.5 were recorded in whole cell voltage clamp mode with the PatchXpress automated electrophysiology system according the manufacturer's specifications (Molecular Devices, LLC, Sunnyvale, Calif.). Cells were held at a holding potential of −50 mV to inactivate sodium channels. To elicit sodium currents the voltage was changed to …
Sequence (Q14524 whole entry): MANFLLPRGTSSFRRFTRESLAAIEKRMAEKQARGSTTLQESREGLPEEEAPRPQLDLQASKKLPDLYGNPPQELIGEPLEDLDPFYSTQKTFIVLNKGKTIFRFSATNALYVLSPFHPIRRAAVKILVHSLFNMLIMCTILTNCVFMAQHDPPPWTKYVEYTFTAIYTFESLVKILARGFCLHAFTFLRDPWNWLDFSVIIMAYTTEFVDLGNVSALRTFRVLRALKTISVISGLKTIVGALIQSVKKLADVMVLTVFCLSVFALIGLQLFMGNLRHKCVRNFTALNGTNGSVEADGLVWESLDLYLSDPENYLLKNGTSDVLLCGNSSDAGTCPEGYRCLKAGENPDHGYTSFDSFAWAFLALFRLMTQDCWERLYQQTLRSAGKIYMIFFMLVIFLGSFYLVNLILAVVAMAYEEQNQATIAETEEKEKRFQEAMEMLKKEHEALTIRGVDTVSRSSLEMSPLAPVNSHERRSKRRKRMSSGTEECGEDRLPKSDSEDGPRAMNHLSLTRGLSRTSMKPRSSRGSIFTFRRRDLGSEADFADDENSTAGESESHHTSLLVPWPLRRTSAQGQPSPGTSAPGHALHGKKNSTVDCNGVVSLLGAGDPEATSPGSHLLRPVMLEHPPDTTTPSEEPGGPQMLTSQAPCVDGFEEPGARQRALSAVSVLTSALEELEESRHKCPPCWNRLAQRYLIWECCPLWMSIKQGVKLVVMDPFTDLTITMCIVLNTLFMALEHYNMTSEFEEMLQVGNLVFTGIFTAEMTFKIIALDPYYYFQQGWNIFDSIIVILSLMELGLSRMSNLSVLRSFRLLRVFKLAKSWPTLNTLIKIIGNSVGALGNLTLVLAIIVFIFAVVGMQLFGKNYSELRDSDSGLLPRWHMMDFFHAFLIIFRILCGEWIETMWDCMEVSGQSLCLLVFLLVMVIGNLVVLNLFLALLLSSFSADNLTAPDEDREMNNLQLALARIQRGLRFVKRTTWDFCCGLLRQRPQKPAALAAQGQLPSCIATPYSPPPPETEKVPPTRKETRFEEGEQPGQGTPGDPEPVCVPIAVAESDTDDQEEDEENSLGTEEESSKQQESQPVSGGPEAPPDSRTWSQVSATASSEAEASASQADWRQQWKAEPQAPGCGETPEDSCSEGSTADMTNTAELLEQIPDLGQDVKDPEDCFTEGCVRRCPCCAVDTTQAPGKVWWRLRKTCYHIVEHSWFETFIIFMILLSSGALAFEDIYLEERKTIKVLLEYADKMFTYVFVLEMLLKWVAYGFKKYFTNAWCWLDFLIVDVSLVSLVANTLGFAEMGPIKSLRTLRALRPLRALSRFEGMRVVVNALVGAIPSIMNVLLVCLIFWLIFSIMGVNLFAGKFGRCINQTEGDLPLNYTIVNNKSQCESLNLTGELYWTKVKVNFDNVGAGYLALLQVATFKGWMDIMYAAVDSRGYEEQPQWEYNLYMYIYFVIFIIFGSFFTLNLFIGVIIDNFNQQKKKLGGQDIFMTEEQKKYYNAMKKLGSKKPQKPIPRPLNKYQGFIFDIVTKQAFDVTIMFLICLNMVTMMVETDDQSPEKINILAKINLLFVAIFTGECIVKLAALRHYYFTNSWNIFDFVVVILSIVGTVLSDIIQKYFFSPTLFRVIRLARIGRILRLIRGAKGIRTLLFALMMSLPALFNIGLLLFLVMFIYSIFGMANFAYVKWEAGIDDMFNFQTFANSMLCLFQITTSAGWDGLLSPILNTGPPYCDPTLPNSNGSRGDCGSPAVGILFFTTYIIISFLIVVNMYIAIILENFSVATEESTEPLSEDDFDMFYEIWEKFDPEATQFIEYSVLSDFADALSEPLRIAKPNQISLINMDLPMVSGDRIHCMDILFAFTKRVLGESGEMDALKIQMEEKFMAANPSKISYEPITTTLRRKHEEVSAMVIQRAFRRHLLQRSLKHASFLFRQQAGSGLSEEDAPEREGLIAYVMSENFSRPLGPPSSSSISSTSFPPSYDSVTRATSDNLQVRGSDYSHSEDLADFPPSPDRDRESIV
Description: Nav 1.5 In Vitro PX Assay: 293 cells stably transfected with human Nav 1.5 were recorded in whole cell voltage clamp mode with the PatchXpress automated electrophysiology system according the manufacturer's specifications (Molecular Devices, LLC, Sunnyvale, Calif.). Cells were held at a holding potential of −50 mV to inactivate sodium channels. To elicit sodium currents the voltage was changed to −120 mV to recover a portion of the channels, followed by delivery of test pulses of 20 msec duration to 0 mV, at 0.1 Hz. A single concentration of test compound was applied to cells for a duration of 5 minutes. Peak sodium current was measured at the end of the compound addition period to determine percent inhibition. A minimum of two cells were tested per concentration.

Question: For `Cc1cc(C(=O)NS(=O)(=O)C2CCC2)c(F)cc1-c1cnc(OC2CCC2)c(Cl)c1`, which IC50 is on record?
Answer: Its IC50 is > 4900 nM.
